This passage reports IC50 results from patent publication US6004960A, “Pyridazinones as inhibitors of cyclooxygenase-2” (Merck Frosst Canada, Inc., priority 1998, dated 1999).

The target in one experiment is COX-1 (Homo sapiens, UniProt P23219). Briefly: Assay of COX-1 activity from U937 cell microsomes. It counts as biochemical. More on the design: Assay of COX-1 Activity from U937 cell microsomes; endogenous in cells; host or cells: U937 cells, 100,000×g microsomal pellet. To be noted: PGE2, read-out: COX-1 (IC50 μM) U-937. As to the method:
Assay of COX-1 Activity from U937 cell microsomes
U 937 cells are pelleted by centrifugation at 500×g for 5 min and washed once with phosphate-buffered saline and repelleted. […] The cell suspension is sonicated 4 times for 10 sec and is centrifuged at 10,000×g for 10 min at 4° C. The supernatant is centrifuged at 100,000×g for 1 hr at 4° C. The 100,000×g microsomal pellet is resuspended in 0.1 M Tris-HCl, pH 7.4, 10 mM EDTA to approximately 7 mg protein/ml and stored at -80° C.
Microsomal preparations are thawed immediately prior to use, subjected to a brief sonication, and then diluted to a protein concentration of 125 μg/ml in 0.1 M Tris-HCl buffer, pH 7.4 containing 10 mM EDTA, 0.5 mM phenol, 1 mM reduced glutathione and 1 μM hematin. Assays are performed in duplicate in a final volume of 250 pl. Initially, 5 µl of DMSO vehicle or drug in DMSO are added to 20 μl of 0.1 M Tris-HCl buffer, pH 7.4 containing 10 mM EDTA in wells of a 96-deepwell polypropylene titre plate. 200 μl of the microsomal preparation are then added and pre-incubated for 15 min at room temperature before addition of 25 μl of […] in 0.1 M Tris-HCl and 10 mM EDTA, pH 7.4. Samples are incubated for 40 min at room temperature and the reaction is stopped by the addition of 25 pl of 1 N HCl. Samples are neutralized with 25 μl of 1 N NaOH prior to quantitation of PGE2 content by radioimmunoassay (Dupont-NEN or Amersham assay kits). Cyclooxygenase activity is defined as the difference between PGE2 levels in samples incubated in the presence of arachidonic acid and ethanol vehicle.
In the assay, inhibition is determined by measuring the amount of prostaglandin E2 (PGE2) synthesized in the presence of arachidonic acid, cyclooxygenase-I or cyclooxygenase-2 and a putative inhibitor.

Another experiment concerns the target T1, COX-2 (Homo sapiens, UniProt P35354).
T1 sequence (P35354 18-604): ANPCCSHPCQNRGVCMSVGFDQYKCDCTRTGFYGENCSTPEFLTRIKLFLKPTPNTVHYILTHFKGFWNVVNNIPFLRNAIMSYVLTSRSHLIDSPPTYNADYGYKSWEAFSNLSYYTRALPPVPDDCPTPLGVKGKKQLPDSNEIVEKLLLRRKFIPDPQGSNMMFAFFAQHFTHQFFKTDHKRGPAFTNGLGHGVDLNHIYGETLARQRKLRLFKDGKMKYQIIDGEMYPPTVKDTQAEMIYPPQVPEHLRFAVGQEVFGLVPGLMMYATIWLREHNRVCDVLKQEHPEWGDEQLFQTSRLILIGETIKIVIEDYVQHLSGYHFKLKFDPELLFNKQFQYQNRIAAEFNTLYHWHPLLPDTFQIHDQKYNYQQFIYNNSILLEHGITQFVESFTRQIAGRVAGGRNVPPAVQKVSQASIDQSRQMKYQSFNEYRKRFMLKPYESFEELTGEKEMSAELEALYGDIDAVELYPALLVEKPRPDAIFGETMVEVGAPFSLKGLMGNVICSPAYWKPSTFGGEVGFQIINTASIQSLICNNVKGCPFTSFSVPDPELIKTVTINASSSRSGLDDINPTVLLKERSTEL
In words: Human whole blood assay, COX-2 (LPS-induced PGE2 production). To be noted: LPS-induced PGE2, 24 hours at 37° C, read-out: COX-2 (IC50 μM) HWB. It counts as cell-based. More on the design: incubation of human whole blood with LPS, which induces COX-2; from tissue; host or cells: fresh human whole blood (volunteers), incubated with LPS. An excerpt: As well, platelets in whole blood contain a large amount of the COX-1 enzyme. Immediately following blood clotting, platelets are activated through a thrombin-mediated mechanism. This reaction results in the production of thromboxane B2 (TxB2) via activation of COX-1. Thus, the effect of test compounds on TxB2 levels following blood clotting can be examined and used as an index for COX-1 activity. Therefore, the degree of selectivity by the test compound can be determined by measuring the levels of PGE2 after LPS induction (COX-2) and […] following blood clotting (COX-1) in the same assay.
A. COX-2 (LPS-induced PGE2 production)
Fresh blood is collected in heparinized tubes by venipuncture from both male and female volunteers. The subjects have no apparent inflammatory conditions and have not taken any NSAIDs for at least 7 days prior to blood collection. Plasma is immediately obtained from a 2mL blood aliquot to use as blank (basal levels of PGE2). The remaining blood is incubated with LPS (100 μg/ml final concentration, Sigma Chem, #L-2630 from E. coli; diluted in 0.1% BSA (Phosphate buffered saline) for 5 minutes at room temperature. Five hundred μL aliquots of blood are incubated with either 2μL of vehicle (DMSO) or 2 μL of a test compound at final concentrations varying from 10nM to 30 μM for 24 hours at 37° C. At the end of the incubation, the blood is centrifuged at 12,000×g for 5 minutes to obtain plasma. A 100 μL aliquot of plasma is mixed with 400 μL of methanol for protein precipitation. The supernatant is obtained and is assayed for PGE2 using a radioimmunoassay kit (Amersham, RPA#530) after conversion of PGE2 to its methyl oximate derivative according to the manufacturer's procedure. […]

Chain of COX-1 (P23219 24-599): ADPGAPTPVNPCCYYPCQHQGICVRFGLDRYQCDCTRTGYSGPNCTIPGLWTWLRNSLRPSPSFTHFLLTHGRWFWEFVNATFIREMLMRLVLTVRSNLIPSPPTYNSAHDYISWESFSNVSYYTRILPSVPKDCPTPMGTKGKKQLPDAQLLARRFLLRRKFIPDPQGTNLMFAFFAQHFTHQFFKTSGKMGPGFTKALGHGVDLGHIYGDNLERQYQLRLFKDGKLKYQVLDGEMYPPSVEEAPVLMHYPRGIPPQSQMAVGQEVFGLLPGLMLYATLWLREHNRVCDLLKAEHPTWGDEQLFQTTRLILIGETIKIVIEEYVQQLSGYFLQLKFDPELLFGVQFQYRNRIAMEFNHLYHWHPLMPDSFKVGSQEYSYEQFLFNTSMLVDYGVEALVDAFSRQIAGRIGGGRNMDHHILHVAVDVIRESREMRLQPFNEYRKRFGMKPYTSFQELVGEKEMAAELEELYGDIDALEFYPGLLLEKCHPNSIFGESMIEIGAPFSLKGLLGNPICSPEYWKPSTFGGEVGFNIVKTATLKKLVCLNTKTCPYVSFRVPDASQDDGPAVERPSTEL

In general, IC50 refers to the concentration at which inhibition is half-maximal. Regarding `CS(=O)(=O)c1ccc(-c2cnn(Cc3ccccc3)c(=O)c2-c2cccnc2)cc1` [Example 28, 2-Benzyl-5-(4-methylsulfonyl)phenyl-4-(3-pyridyl)-2H-pyridazin-3-one], the 50% inhibitory concentration (IC50) was > 10 µM on COX-1 and 1.5 µM at COX-2.
